Measurements taken from patent publication US20110053971A1, “NALMEFENE DI-ESTER PRODRUGS” (JANSSEN PHARMACEUTICA NV, priority 2008, published 2011).

Test: In vivo PK studies in dog (oral administration): plasma levels of nalmefene
Details: oral administration of nalmefene itself, Example C.2
Experimental: Doses at 10 mg/kg or 20 mg/kg body weight of a compound of formula (I) or of nalmefene itself in a solution of 20% HP-β-CD (hydroxypropyl-β-cyclodextrines) were used and orally administered to dogs.
Blood samples were taken over a period of 192 hours after oral administration. Blood samples were processed to obtain plasma. Plasma samples were analysed individually for nalmefene by means of a qualified LC-MS/MS-method.

C=C1CC[C@@]2(O)[C@H]3Cc4ccc(O)c5c4[C@@]2(CCN3CC2CC2)[C@H]1O5 [nalmefene, 17-cyclopropylmethyl-4,5α-epoxy-6-methylenemorphinan-3,14-diol]
time for which plasma levels of nalmefene can be measured after oral administration (in words): a few hours
